According to patent US20260021059A1, “THERAPEUTIC COMBINATIONS AND METHODS” (RUTGERS, THE STATE UNIVERSITY OF NEW JERSEY, priority 2022, published 2026):
Entries after “also recorded” stand apart in the source; their conditions may differ.

Assays:
[1] = tested on: BED patients; details: daily LDX administration; cited from earlier work
[2] = tested on: rats; assay: Palatable food intake (binge-like eating) of a fat/sucrose mixture during 30 min exposure periods; assay type: in vivo; details: for palatable food intake (binge-like eating): N=5; for palatable food intake: N=12
Method: Rats were trained to consume a palatable fat mixture (90% vegetable shortening, 10% sucrose) during brief exposure periods (30 mins) that occurred twice per week. The amount of palatable food consumed during these 30 min exposure periods was measured.

[3] = tested on: rats; assay: Locomotor activity / behavioral sensitization on repeated (7 d) dosing; assay type: in vivo; details: d-amphetamine alone 0.375 mg/kg i.p., 7 consecutive days; recorded 1 hour following treatment
Method: Rats were measured for baseline locomotor activity (Day 0). Rats then received injections of saline, d-amphetamine, or the combination of d-amphetamine and suvorexant, for 7 consecutive days. Locomotor activity was recorded for 1 hour following treatment.

[4] = tested on: rats; assay: Sleep EEG/EMG telemetry recordings over the 12 hours inactive period; details: d-amphetamine alone 0.75 mg/kg i.p., 1 hr prior to onset of inactive period

SMILES: C[C@@H](Cc1ccccc1)NC(=O)[C@@H](N)CCCCN [LDX, lisdexamfetamine]
- binge frequency [1]: highly effective at reducing binge frequency
- patients reporting complete binge cessation [1]: 35-50%

SMILES: Cc1nc2ccc(NC(=O)Nc3ccnc4cccnc34)cc2o1 [SB334867]
- palatable food intake (binge-like eating) ([2]; SB334867 alone 10 mg/kg i.p.): observed only at the highest dose; also recorded: A significant reduction was observed only at a high dose
- palatable food intake (binge-like eating) ([2]; SB334867 alone 30 mg/kg i.p.): significant change; also recorded: significant reduction

SMILES: C[C@H](N)Cc1ccccc1 [d-amphetamine]
- palatable food intake ([2]; d-amphetamine alone 0.1875 mg/kg i.p. prior to test session): no significant change; also recorded: no effect
- palatable food intake ([2]; d-amphetamine alone 0.375 mg/kg i.p. prior to test session): no significant change; also recorded: no effect
- locomotor activity (behavioral reactivity) [3]: significantly higher; also recorded: increased locomotor activity
- total time in REM sleep compared to baseline [4]: decreased
- total time in active wake compared to baseline [4]: increased

SMILES: Cc1ccc(-n2nccn2)c(C(=O)N2CCN(c3nc4cc(Cl)ccc4o3)CC[C@H]2C)c1 [suvorexant]
- palatable food intake ([2]; suvorexant alone 10 mg/kg i.p. prior to test session): no significant change; also recorded: no effect
